According to paper PMC10353390, “Biological and Structural Analyses of New Potent Allosteric Inhibitors of HIV-1 Integrase” (Antimicrobial Agents and Chemotherapy, 2023):
Where two headings read alike, the source gives them in different places.

Legend:
HIV-1 IN = molecular target: T1, HIV-1 IN (Human immunodeficiency virus type 1 group M subtype B, UniProt P12497); experiment: HTRF IN multimerization assay; assay type: biochemical; conditions: mean ± SD
T1 construct: made in house
From the text: A key property of INLAIs is the ability to promote HIV-1 IN homo-multimerization ([39][–][42]). […] The maximal signal (plateau) in our IN aggregation assay corresponds to the highest HTRF signal increase under saturating INLAI concentration, relative to baseline level. Thus, MUT916, MUT884, MUT871, and MUT872 increased HIV-1 IN aggregation 3.7 to 4.4-fold, while BDM-2, BI-224436, and S-I-82 did so 5 to 6-fold (Table 1).

HXB2 HIV-1 strain = experiment: Multiple-round infection assay in MT4 cells, HXB2; assay type: cell-based; conditions: Human immunodeficiency virus 1, HXB2; multiple-round infection, MT4 cells; mean ± SD, n > 5; read-out: EC50 HXB2
Method in brief: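 Antiviral read-out was CellTiter-Glo luminescent viability of exponentially growing MT4 cells (10^6/mL). Cells were exposed to HIV-1 for 2 h at an MOI of 0.001 while compound was present at varying concentrations.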

NL4-3 HIV-1 strain = experiment: Multiple-round infection assay in MT4 cells, NL4-3; assay type: cell-based; conditions: MT4 cells
[1] = Cytotoxicity assay in MT4 cells; assay type: cell-based; conditions: human, MT4 cells (proliferating human T-cell line), CellTiter-Glo
From the text: Growth inhibition was monitored in a proliferating human T-cell line (MT4) with different concentrations of compounds, using the CellTiter-Glo luminescent reagent (Promega), as previously described ([12]).

[2] = tested on: lab-adapted and clinical HIV-1 isolates; experiment: Infection assays in primary T CD4+ lymphocytes; assay type: cell-based; conditions: Human immunodeficiency virus 1, Lymphocyte
[3] = tested on: VSV-G-pseudotyped NL4-3Δenv-luc; experiment: microbe, parasite or virus in culture; assay type: cell-based, HIV-1
[4] = tested on: recombinant NL4-3 viruses with polymorphisms at IN positions 124 and 125; experiment: Multiple-round infection of MT4 cells with recombinant NL4-3 viruses polymorphic at IN positions 124 and 125; assay type: cell-based, HIV-1
From the text: Located on the HIV-1 IN CCD dimerization interface, the principal INLAI binding pocket overlaps with a hot spot of amino acid sequence polymorphism involving IN residues 124 and 125 ([16]). To test if the new INLAIs maintained antiviral activity against major polymorphisms, we introduced all major combinations of residues found in circulating HIV-1 strains at positions 124 and 125 into NL4-3 HIV-1 molecular clone. In total, we evaluated 15 such combinations that collectively covered 98% of all HIV-1 clade polymorphisms involving these positions ([48]). To gauge effects on the antiviral activity, we calculated the EC50 fold change (FC) relative to wild type NL4-3 HIV-1 strain that features Thr124 and Thr125 (TT; specific polymorphisms are referred to by a single letter amino acid code).
(§1) MT4 cells growing exponentially at the density of 10^6/mL were infected with HIV-1 strain NL4-3 at a multiplicity of infection (MOI) of 0.001 for 2 h in the presence of different concentrations of compounds, and the CellTiter-Glo luminescent reagent (Promega) was used to quantify cell viability as described previously ([12]).

[5] = tested on: primary HIV-1 isolates with polymorphisms at IN positions 124 and 125; experiment: Multiple-round infection of MT4 cells with primary HIV-1 isolates polymorphic at IN positions 124 and 125; assay type: cell-based; conditions: primary isolate
Method: Next, we evaluated the potency of the BDM-2 series of INLAIs against several primary HIV-1 isolates with polymorphisms at IN positions 124 and 125.
as §1

[6] = tested on: HIV-1 strains resistant to INSTIs, NRTIs, NNRTIs or PIs; assay type: cell-based
Method in brief: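 Cell viability (CellTiter-Glo luminescence) served as read-out in MT4 cells at 10^6/mL, infected 2 h at MOI 0.001 in presence of graded compound concentrations. Viruses: resistance-mutation recombinants in NL4-3 backbone plus resistant clinical isolates.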

[7] = tested on: NL4-3 HIV-1 with INLAI-selected IN single point mutations; assay type: cell-based
[8] = molecular target: HIV-1 IN-LEDGF/p75 interaction (Human immunodeficiency virus type 1 group M subtype B, UniProt P12497); experiment: biochemical
Method: (§2) The INLAIs were tested for the ability to inhibit the HIV-1 IN-LEDGF/p75 interaction in a homogeneous time-resolved fluorescence (HTRF) assay. Our assays used either full-length IN and LEDGF/p75 proteins or their respective minimally sufficient interaction domains: the CCD of HIV-1 IN and the IBD of LEDGF/p75 (Table 1).
(§3) HTRF-based CCD-IBD interaction, IN-LEDGF/p75 interaction and IN multimerization assays were performed as described previously ([12]).

[9] = molecular target: CCD of HIV-1 IN and IBD of LEDGF/p75 (Human immunodeficiency virus type 1 group M subtype B, UniProt P12497); experiment: biochemical
Method: as §2, §3

[10] = INSTI-resistant, NL4-3 background

Cc1ccc(C2CC2)c(-c2ccc3c(c2C)CCCO3)c1[C@H](OC1CC1)C(=O)O [MUT884]
AC50 (HIV-1 IN; concentration for 50% maximum activation of multimerization): 22 ± 4 nM
IN multimerization Plateau (HIV-1 IN; maximum multimerization reached versus baseline): 400 ± 71%
EC50 (HXB2 HIV-1 strain): 6.3 ± 1.1 nM
EC90 (NL4-3 HIV-1 strain; Human immunodeficiency virus 1, NL43, multiple-round infection, from dose response curves, read-out: EC90 NL4-3): 23 ± 13 nM
EC50 (NL4-3 HIV-1 strain; Human immunodeficiency virus 1, NL43, multiple-round infection, mean ± SD, n > 5, read-out: EC50 NL4-3): 15 ± 5 nM
Selectivity index CC50/EC50 NL4-3 (NL4-3 HIV-1 strain): 5,200
CC50 [1]: 78000 ± 12000 nM
EC50 ([2]; read-out: EC50 33913N (B)): 5.8 ± 3.2 nM
EC50 ([2]; read-out: EC50 HXB2 (B)): 10 ± 6 nM
EC50 ([2]; read-out: EC50 KER2008 (A)): 19 ± 3 nM
EC50 ([2]; read-out: EC50 NL4-3 (B)): 15 ± 4 nM
EC50 ([2]; read-out: EC50 NP1525 (CRF01_AE)): 12 ± 3 nM
EC50 ([2]; read-out: EC50 NP1538 (B)): 41 ± 2 nM
EC50 ratio (single/multiple-round infection) [3]: 260
EC50 ([3]; Human immunodeficiency virus 1, NL43, MT4, read-out: EC50 in single-round infection): 3900 ± 800 nM
Fold change in EC50 relative to parental NL4-3, AA ([4]; recombinant NL4-3, IN 124/125 AA): 0.4
Fold change in EC50 relative to parental NL4-3, AM ([4]; recombinant NL4-3, IN 124/125 AM): 0.2
Fold change in EC50 relative to parental NL4-3, AT ([4]; recombinant NL4-3, IN 124/125 AT): 1
Fold change in EC50 relative to parental NL4-3, AV ([4]; recombinant NL4-3, IN 124/125 AV): 0.5
Fold change in EC50 relative to parental NL4-3, GA ([4]; recombinant NL4-3, IN 124/125 GA): 1
Fold change in EC50 relative to parental NL4-3, GT ([4]; recombinant NL4-3, IN 124/125 GT): 2
Fold change in EC50 relative to parental NL4-3, NA ([4]; recombinant NL4-3, IN 124/125 NA): 2
Fold change in EC50 relative to parental NL4-3, NT ([4]; recombinant NL4-3, IN 124/125 NT): 1
Fold change in EC50 relative to parental NL4-3, NV ([4]; recombinant NL4-3, IN 124/125 NV): 1
Fold change in EC50 relative to parental NL4-3, SA ([4]; recombinant NL4-3, IN 124/125 SA): 1
Fold change in EC50 relative to parental NL4-3, ST ([4]; recombinant NL4-3, IN 124/125 ST): 1
Fold change in EC50 relative to parental NL4-3, TA ([4]; recombinant NL4-3, IN 124/125 TA): 1
Fold change in EC50 relative to parental NL4-3, TM ([4]; recombinant NL4-3, IN 124/125 TM): 0.2
Fold change in EC50 relative to parental NL4-3, TV ([4]; recombinant NL4-3, IN 124/125 TV): 1
Fold change in EC50 relative to parental NL4-3, CAM2BBY (CRF02) ([5]; IN 124/125 AA): 1
Fold change in EC50 relative to parental NL4-3, E0836M4 (D) ([5]; IN 124/125 AA): 1
Fold change in EC50 relative to parental NL4-3, KER2008 (A) ([5]; IN 124/125 AA): 0.5
Fold change in EC50 relative to parental NL4-3, NP1525 (CRF01) ([5]; IN 124/125 AA): 1
Fold change in EC50 relative to parental NL4-3, NP1695 (CRF02) ([5]; IN 124/125 AA): 2
Fold change in EC50 relative to parental NL4-3, TZA125 (C) ([5]; IN 124/125 AA): 0.3
Fold change in EC50 relative to parental NL4-3, KSM4030 (A) ([5]; IN 124/125 GA): 1
Fold change in EC50 relative to parental NL4-3, vGA (C) ([5]; IN 124/125 GA): 5
Fold change in EC50 relative to parental NL4-3, 99ET14 (C) ([5]; IN 124/125 NA): 1
Fold change in EC50 relative to parental NL4-3, NP1538 (B) ([5]; IN 124/125 NA): 3
Fold change in EC50 relative to parental NL4-3, vNA_1 (B) ([5]; IN 124/125 NA): 3
Fold change in EC50 relative to parental NL4-3, vNA_2 (CRF02) ([5]; IN 124/125 NA): 4
Fold change in EC50 relative to parental NL4-3, vNV (B) ([5]; IN 124/125 NV): 2
Fold change in EC50 relative to parental NL4-3, vSA_1 (B) ([5]; IN 124/125 SA): 2
Fold change in EC50 relative to parental NL4-3, vSA_2 (CRF02) ([5]; IN 124/125 SA): 2
Fold change in EC50 relative to parental NL4-3, vTA_1 (B) ([5]; IN 124/125 TA): 1
Fold change in EC50 relative to parental NL4-3, vTA_2 (CRF02) ([5]; IN 124/125 TA): 2
Fold change in EC50 relative to NL4-3, E92Q [6, 10]: 1
Fold change in EC50 relative to NL4-3, G140S [6, 10]: 1
Fold change in EC50 relative to NL4-3, G140S/Q148H [6, 10]: 1
Fold change in EC50 relative to NL4-3, N155H [6, 10]: 1
Fold change in EC50 relative to NL4-3, Q148H [6, 10]: 1
Fold change in EC50 relative to NL4-3, Y143R [6, 10]: 0.5
Fold change in EC50 relative to NL4-3, NLAY351717 ([6]; NRTI-resistant clone): 1
Fold change in EC50 relative to NL4-3, NLAY351753 ([6]; NRTI/NNRTI-resistant clone): 1
Fold change in EC50 relative to NL4-3, K103N/Y181C ([6]; NRTI/NNRTIs group, NL4-3 background): 1
Fold change in EC50 relative to NL4-3, ARP-4595 ([6]; PI-resistant virus): 1
Fold change in EC50 relative to NL4-3, ARP-4596 ([6]; PI-resistant virus): 1
Fold change in EC50 relative to NL4-3, ARP-11801 ([6]; PI-resistant virus): 3
Fold change in EC50 relative to NL4-3, ARP-11803 ([6]; PI-resistant virus): 2
Fold change in EC50 relative to NL4-3, ARP-11807 ([6]; PI-resistant virus): 1
Fold change in EC50 relative to NL4-3, ARP-11808 ([6]; PI-resistant virus): 2
EC50 fold change compared to wild type NL4-3, A128T [7]: 5
EC50 fold change compared to wild type NL4-3, H171Q [7]: 1
EC50 fold change compared to wild type NL4-3, N222K [7]: 3
EC50 fold change compared to wild type NL4-3, T174I [7]: 12
EC50 fold change compared to wild type NL4-3, Y99H [7]: 2
IC50 [8]: 62 ± 9 nM
IC50 [9]: 82 ± 21 nM
